Data as given in the NIST ThermoML archive (doi:10.1021/je8008864).

Experiment: mn = molality of the nth substance listed, in mol/kg
Details: 101 kPa, Liquid; for viscosity: Rotational; for mass density: Vibrating tube method

CNCCC=C1c2ccccc2CCc2ccccc21.Cl + O
Details | mass density [kg/m3] | viscosity [mPa·s]
293.15 K, m1 = 0.0075 | 998.486 | 1.035
293.15 K, m1 = 0.01 | 998.545 | 1.035
293.15 K, m1 = 0.0125 | 998.599 | 1.036
293.15 K, m1 = 0.0152 | 998.645 | 1.036
293.15 K, m1 = 0.0175 | 998.668 | 1.037
293.15 K, m1 = 0.02 | 998.705 | 1.037
293.15 K, m1 = 0.025 | 998.721 | 1.038
298.15 K, m1 = 0.0076 | 997.322 | 0.9368
298.15 K, m1 = 0.01 | 997.382 | 0.937
298.15 K, m1 = 0.0125 | 997.428 | 0.9374
298.15 K, m1 = 0.0152 | 997.469 | 0.9376
298.15 K, m1 = 0.0175 | 997.499 | 0.9379
298.15 K, m1 = 0.02 | 997.521 | 0.9382
298.15 K, m1 = 0.025 | 997.545 | 0.9388
303.15 K, m1 = 0.0076 | 995.904 | 0.8338
303.15 K, m1 = 0.01 | 995.959 | 0.8339
303.15 K, m1 = 0.0125 | 996.001 | 0.8342
303.15 K, m1 = 0.0152 | 996.045 | 0.8345
303.15 K, m1 = 0.0175 | 996.065 | 0.8348
303.15 K, m1 = 0.02 | 996.085 | 0.8349
303.15 K, m1 = 0.025 | 996.105 | 0.8356
308.15 K, m1 = 0.0076 | 994.285 | 0.7279
308.15 K, m1 = 0.01 | 994.335 | 0.7281
308.15 K, m1 = 0.0125 | 994.379 | 0.7283
308.15 K, m1 = 0.0152 | 994.409 | 0.7285
308.15 K, m1 = 0.0175 | 994.435 | 0.7286
308.15 K, m1 = 0.02 | 994.455 | 0.7289
308.15 K, m1 = 0.025 | 994.465 | 0.7293
310.15 K, m1 = 0.0076 | 993.565 | 0.6925
310.15 K, m1 = 0.01 | 993.621 | 0.6928
310.15 K, m1 = 0.0125 | 993.659 | 0.6929
310.15 K, m1 = 0.0152 | 993.689 | 0.6931
310.15 K, m1 = 0.0175 | 993.712 | 0.6932
310.15 K, m1 = 0.02 | 993.73 | 0.6935
310.15 K, m1 = 0.025 | 993.741 | 0.6938
313.15 K, m1 = 0.0076 | 992.443 | 0.6556
313.15 K, m1 = 0.01 | 992.499 | 0.6557
313.15 K, m1 = 0.0125 | 992.539 | 0.6558
313.15 K, m1 = 0.0152 | 992.571 | 0.656
313.15 K, m1 = 0.0175 | 992.592 | 0.6562
313.15 K, m1 = 0.02 | 992.601 | 0.6564
313.15 K, m1 = 0.025 | 992.609 | 0.6568
